The values that follow come from PMC8689225, “Cardiac ryanodine receptor N-terminal region biosensors identify novel inhibitors via FRET-based high-throughput screening” (The Journal of Biological Chemistry, 2021).

The target of assay [1] is T1, RyR2 (Sus scrofa, UniProt A0A5G2R1W3).
T1 construct: from tissue; host or cells: porcine cardiac left ventricle, crude SR vesicles
Kind of assay: [3H]ryanodine binding to cardiac SR (CSR) vesicles. As to conditions: for EC50: Table S4, read-out: EC50, [3H]ryanodine binding, cardiac SR; for effect on [3H]ryanodine binding to RyR2: cardiac SR. Type of assay: biochemical, pig. The method, then: (§1) Crude sarcoplasmic reticulum membrane vesicles were isolated from porcine longissimus dorsi muscle and porcine cardiac left ventricle tissue by differential centrifugation of homogenized tissue, as established previously ([65]). Skeletal heavy SR (HSR) vesicles, which are enriched with RyR1, were isolated by fractionation of crude skeletal SR vesicles using a discontinuous sucrose gradient, in accordance with our published work ([65]). All vesicles were flash-frozen and stored at −80 °C.
(§2) In 96-well plates, skeletal SR membranes (HSR, 1 mg/ml) and cardiac SR membranes (CSR, 3 mg/ml) were preincubated with 1% DMSO or hit compound for 30 min at 22 °C in a solution containing 150 mM KCl, 5 mM GSH, 1 μg/ml Aprotinin/Leupeptin, 1 mM EGTA, and 65 μM or 1.02 mM CaCl2 (as determined by MaxChelator to yield 30 nM or 30 μM of free Ca^2+, respectively), 0.1 mg/ml of BSA, and 20 mM K-PIPES (pH 7.0). Nonspecific [^3H]ryanodine binding to SR was assessed by addition of 40 μM nonradioactively labeled ryanodine. Maximal [^3H]ryanodine binding was assessed by addition of 5 mM adenylyl-imidodiphosphate (AMP-PNP), and in the case of CSR, 20 mM caffeine was added. These control samples were each loaded over four wells per plate. Binding of [^3H]ryanodine (7.5 and 10 nM for CSR and HSR, respectively) was determined following a 3 h incubation at 37 °C and filtration through grade GF/B glass microfiber filters (Brandel Inc) using a Brandel Harvester. In 4 ml of Ecolite scintillation cocktail (MP biomedicals), [^3H]ryanodine retained on the filter was counted using a Beckman LS6000 scintillation counter.

Assay [2] deals with T2, mouse RyR2 NTR (Mus musculus, UniProt E9Q401, K30C/K441C, form not given).
T2 sequence (E9Q401 1-547 K30C/K441C): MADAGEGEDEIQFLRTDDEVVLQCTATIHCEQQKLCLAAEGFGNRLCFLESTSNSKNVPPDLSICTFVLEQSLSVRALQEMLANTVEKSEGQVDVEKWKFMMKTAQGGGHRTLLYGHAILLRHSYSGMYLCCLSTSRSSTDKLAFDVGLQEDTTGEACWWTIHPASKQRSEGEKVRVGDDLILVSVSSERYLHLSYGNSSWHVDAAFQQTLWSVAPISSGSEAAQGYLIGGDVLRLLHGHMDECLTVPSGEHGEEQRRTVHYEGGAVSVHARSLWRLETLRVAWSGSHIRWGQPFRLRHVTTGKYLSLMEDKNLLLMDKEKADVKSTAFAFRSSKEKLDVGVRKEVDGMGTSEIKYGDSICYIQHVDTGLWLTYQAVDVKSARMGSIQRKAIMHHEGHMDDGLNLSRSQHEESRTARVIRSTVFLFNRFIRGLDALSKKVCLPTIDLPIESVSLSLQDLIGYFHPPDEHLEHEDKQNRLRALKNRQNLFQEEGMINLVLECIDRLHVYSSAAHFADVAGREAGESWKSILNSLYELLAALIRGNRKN
Description: FLT-FRET dose-response with AC-NTR biosensor. The following applies: for saturation of FRET dose-response: decreased FLT; for saturation of FRET dose-response / ΔFLT: 0 to 100 μM; for decrease of donor-only FLT as share of the FLT change in the donor-acceptor sample: interference control, designated interfering compounds; for ΔFLT: CPNQ/corbadrine decrease FLT, FA/tacrolimus increase FLT. Type of assay: binding. The source says: The NTR of mouse RyR2 (residues 1–547) was cloned and expressed as previously described ([27]). The DNA construct contains a 6×His tag, a maltose-binding protein (MBP) tag, and a tobacco etch virus (TEV) protease cleavage site. The seven native solvent-exposed cysteine residues were substituted with alanine residues, and two constructs were engineered with Cys substitutions at surface residues R383 and K441 (in the B and C domains, respectively; termed BC) and at K30 and K441 (in the A and C domains, respectively; termed AC) for labeling with spectroscopic probes such as appropriate donor–acceptor fluorophores for FRET (for the purpose of this report, these are considered the WT forms of AC and BC). A variant of the BC construct corresponding to the disease-associated mutant (R420Q) was also prepared. For this site-directed mutagenesis work, we used the QuikChange (Stratagene) and Phusion High-Fidelity PCR (Thermo Fisher Scientific) kits. The WT-NTR, R420Q-NTR, AC- and BC-NTR, AC- and BC-R420Q-NTR protein constructs were expressed in Escherichia coli Rosetta (DE3) pLacI cells at 18 °C and purified with a protocol adapted from previously published work ([26]). An amylose column was first applied after the cells were lysed by ultrasonication. The protein in the elution was then cleaved using TEV protease. The cleaved crude protein went through the second amylose column to separate from the MBP and then followed by a Superdex S-200 size exclusion column in a buffer consisting of 250 mM KCl, 10 mM HEPES, and 14 mM β-mercaptoethanol (pH 7.4). The NTR protein (3 μM) was then incubated in 10 mM HEPES, 250 mM KCl (pH 7.4, 2 h, 21 °C) with the fluorescent probes Alexa Fluor 488 maleimide (AF488, donor; 40 μM) and Alexa Fluor 568 maleimide (AF568, acceptor; 60 μM). The maleimide of the dye reacts with the thiols the Cys residues engineered into NTR, forming a covalently labeled protein. The Alexa dyes were added last to the reaction mixture, from 10 mM DMSO stock solutions. This reaction is not selective to one site (K30C or K441C), and we anticipate that there is a mixed population with K30C or K441C labeled with either AF488 (donor) or AF568 (acceptor). We focused on maximizing the fraction containing donor–acceptor pairs, thus maximizing FRET efficiency and the precision for detecting a change in structure as an indication that a compound interacts with the NTR biosensor. The labeling efficiency was determined by comparing the molar concentration of the bound dye, determined from UV-Vis absorbance, to the protein concentration, determined from gel densitometry. Essentially complete labeling was confirmed from electrospray ionization mass spectrometry. CD spectra of the WT-NTR and mutant R420Q-NTR constructs before and after labeling were recorded using a JASCO J-815 CD spectrometer (JASCO), confirming similar folding (Fig. S1).
The 1536-well assay plates were prepared as described in our previous reports ([21]). The LOPAC (Sigma-Aldrich) collection received in 96-well plates was reformatted into 384-well polypropylene intermediate plates (Greiner Bio-One) using a multichannel liquid handler, BioMek FX (Beckman Coulter), then transferred to 384-well Echo Qualified source plates (Labcyte Inc). Assay plates were prepared as previously described ([20]). On screening days, these plates were thawed out and were loaded with labeled NTR (5 μl, 20 nM final concentration) using a Multidrop Combi automated sample dispenser.
HTS measurements were conducted in a prototype top-read FLT plate reader (FLT-PR, Fluorescence Innovations, Inc), which reads each 1536-well plate in ∼3 min ([63], [64]). AF488 donor fluorescence was excited with a 473 nm microchip laser from Concepts Research Corporation, and the emission signal was split into two channels by a dichroic mirror and acquired with 517 ± 10 nm (channel 1) and 535 ± 7 nm band-pass filters (channel 2) (Semrock). […]

Assay [3] concerns the target T3, RyR1 (Sus scrofa, UniProt P16960).
T3 construct: from tissue; host or cells: porcine longissimus dorsi muscle, heavy SR vesicles
Kind of assay: [3H]ryanodine binding to skeletal SR (HSR) vesicles. The assay is classed as biochemical, pig. As to conditions: for EC50: Table S4, read-out: EC50, [3H]ryanodine binding, skeletal HSR; for maximum inhibitory effect on [3H]ryanodine binding / effect on [3H]ryanodine binding to RyR1: skeletal SR; for maximum inhibitory effect on [3H]ryanodine binding: 30 nM Ca2+; for effect on [3H]ryanodine binding to RyR1: 30 μM Ca2+. The method, then: as §1, §2

In assay [4] the test system is RyR. Also noted: method as in PMID 27760856, PMID 32019969. As to conditions: cited from earlier work.
[5] abbreviates: AC-NTR biosensor, Hill fit, Table S4, read-out: EC50, FRET dose-response.

Usually EC50 stands for the midpoint of the concentration-response curve.

Like-named read-outs stand apart in the source and are kept apart here.

T3 sequence (P16960 whole entry): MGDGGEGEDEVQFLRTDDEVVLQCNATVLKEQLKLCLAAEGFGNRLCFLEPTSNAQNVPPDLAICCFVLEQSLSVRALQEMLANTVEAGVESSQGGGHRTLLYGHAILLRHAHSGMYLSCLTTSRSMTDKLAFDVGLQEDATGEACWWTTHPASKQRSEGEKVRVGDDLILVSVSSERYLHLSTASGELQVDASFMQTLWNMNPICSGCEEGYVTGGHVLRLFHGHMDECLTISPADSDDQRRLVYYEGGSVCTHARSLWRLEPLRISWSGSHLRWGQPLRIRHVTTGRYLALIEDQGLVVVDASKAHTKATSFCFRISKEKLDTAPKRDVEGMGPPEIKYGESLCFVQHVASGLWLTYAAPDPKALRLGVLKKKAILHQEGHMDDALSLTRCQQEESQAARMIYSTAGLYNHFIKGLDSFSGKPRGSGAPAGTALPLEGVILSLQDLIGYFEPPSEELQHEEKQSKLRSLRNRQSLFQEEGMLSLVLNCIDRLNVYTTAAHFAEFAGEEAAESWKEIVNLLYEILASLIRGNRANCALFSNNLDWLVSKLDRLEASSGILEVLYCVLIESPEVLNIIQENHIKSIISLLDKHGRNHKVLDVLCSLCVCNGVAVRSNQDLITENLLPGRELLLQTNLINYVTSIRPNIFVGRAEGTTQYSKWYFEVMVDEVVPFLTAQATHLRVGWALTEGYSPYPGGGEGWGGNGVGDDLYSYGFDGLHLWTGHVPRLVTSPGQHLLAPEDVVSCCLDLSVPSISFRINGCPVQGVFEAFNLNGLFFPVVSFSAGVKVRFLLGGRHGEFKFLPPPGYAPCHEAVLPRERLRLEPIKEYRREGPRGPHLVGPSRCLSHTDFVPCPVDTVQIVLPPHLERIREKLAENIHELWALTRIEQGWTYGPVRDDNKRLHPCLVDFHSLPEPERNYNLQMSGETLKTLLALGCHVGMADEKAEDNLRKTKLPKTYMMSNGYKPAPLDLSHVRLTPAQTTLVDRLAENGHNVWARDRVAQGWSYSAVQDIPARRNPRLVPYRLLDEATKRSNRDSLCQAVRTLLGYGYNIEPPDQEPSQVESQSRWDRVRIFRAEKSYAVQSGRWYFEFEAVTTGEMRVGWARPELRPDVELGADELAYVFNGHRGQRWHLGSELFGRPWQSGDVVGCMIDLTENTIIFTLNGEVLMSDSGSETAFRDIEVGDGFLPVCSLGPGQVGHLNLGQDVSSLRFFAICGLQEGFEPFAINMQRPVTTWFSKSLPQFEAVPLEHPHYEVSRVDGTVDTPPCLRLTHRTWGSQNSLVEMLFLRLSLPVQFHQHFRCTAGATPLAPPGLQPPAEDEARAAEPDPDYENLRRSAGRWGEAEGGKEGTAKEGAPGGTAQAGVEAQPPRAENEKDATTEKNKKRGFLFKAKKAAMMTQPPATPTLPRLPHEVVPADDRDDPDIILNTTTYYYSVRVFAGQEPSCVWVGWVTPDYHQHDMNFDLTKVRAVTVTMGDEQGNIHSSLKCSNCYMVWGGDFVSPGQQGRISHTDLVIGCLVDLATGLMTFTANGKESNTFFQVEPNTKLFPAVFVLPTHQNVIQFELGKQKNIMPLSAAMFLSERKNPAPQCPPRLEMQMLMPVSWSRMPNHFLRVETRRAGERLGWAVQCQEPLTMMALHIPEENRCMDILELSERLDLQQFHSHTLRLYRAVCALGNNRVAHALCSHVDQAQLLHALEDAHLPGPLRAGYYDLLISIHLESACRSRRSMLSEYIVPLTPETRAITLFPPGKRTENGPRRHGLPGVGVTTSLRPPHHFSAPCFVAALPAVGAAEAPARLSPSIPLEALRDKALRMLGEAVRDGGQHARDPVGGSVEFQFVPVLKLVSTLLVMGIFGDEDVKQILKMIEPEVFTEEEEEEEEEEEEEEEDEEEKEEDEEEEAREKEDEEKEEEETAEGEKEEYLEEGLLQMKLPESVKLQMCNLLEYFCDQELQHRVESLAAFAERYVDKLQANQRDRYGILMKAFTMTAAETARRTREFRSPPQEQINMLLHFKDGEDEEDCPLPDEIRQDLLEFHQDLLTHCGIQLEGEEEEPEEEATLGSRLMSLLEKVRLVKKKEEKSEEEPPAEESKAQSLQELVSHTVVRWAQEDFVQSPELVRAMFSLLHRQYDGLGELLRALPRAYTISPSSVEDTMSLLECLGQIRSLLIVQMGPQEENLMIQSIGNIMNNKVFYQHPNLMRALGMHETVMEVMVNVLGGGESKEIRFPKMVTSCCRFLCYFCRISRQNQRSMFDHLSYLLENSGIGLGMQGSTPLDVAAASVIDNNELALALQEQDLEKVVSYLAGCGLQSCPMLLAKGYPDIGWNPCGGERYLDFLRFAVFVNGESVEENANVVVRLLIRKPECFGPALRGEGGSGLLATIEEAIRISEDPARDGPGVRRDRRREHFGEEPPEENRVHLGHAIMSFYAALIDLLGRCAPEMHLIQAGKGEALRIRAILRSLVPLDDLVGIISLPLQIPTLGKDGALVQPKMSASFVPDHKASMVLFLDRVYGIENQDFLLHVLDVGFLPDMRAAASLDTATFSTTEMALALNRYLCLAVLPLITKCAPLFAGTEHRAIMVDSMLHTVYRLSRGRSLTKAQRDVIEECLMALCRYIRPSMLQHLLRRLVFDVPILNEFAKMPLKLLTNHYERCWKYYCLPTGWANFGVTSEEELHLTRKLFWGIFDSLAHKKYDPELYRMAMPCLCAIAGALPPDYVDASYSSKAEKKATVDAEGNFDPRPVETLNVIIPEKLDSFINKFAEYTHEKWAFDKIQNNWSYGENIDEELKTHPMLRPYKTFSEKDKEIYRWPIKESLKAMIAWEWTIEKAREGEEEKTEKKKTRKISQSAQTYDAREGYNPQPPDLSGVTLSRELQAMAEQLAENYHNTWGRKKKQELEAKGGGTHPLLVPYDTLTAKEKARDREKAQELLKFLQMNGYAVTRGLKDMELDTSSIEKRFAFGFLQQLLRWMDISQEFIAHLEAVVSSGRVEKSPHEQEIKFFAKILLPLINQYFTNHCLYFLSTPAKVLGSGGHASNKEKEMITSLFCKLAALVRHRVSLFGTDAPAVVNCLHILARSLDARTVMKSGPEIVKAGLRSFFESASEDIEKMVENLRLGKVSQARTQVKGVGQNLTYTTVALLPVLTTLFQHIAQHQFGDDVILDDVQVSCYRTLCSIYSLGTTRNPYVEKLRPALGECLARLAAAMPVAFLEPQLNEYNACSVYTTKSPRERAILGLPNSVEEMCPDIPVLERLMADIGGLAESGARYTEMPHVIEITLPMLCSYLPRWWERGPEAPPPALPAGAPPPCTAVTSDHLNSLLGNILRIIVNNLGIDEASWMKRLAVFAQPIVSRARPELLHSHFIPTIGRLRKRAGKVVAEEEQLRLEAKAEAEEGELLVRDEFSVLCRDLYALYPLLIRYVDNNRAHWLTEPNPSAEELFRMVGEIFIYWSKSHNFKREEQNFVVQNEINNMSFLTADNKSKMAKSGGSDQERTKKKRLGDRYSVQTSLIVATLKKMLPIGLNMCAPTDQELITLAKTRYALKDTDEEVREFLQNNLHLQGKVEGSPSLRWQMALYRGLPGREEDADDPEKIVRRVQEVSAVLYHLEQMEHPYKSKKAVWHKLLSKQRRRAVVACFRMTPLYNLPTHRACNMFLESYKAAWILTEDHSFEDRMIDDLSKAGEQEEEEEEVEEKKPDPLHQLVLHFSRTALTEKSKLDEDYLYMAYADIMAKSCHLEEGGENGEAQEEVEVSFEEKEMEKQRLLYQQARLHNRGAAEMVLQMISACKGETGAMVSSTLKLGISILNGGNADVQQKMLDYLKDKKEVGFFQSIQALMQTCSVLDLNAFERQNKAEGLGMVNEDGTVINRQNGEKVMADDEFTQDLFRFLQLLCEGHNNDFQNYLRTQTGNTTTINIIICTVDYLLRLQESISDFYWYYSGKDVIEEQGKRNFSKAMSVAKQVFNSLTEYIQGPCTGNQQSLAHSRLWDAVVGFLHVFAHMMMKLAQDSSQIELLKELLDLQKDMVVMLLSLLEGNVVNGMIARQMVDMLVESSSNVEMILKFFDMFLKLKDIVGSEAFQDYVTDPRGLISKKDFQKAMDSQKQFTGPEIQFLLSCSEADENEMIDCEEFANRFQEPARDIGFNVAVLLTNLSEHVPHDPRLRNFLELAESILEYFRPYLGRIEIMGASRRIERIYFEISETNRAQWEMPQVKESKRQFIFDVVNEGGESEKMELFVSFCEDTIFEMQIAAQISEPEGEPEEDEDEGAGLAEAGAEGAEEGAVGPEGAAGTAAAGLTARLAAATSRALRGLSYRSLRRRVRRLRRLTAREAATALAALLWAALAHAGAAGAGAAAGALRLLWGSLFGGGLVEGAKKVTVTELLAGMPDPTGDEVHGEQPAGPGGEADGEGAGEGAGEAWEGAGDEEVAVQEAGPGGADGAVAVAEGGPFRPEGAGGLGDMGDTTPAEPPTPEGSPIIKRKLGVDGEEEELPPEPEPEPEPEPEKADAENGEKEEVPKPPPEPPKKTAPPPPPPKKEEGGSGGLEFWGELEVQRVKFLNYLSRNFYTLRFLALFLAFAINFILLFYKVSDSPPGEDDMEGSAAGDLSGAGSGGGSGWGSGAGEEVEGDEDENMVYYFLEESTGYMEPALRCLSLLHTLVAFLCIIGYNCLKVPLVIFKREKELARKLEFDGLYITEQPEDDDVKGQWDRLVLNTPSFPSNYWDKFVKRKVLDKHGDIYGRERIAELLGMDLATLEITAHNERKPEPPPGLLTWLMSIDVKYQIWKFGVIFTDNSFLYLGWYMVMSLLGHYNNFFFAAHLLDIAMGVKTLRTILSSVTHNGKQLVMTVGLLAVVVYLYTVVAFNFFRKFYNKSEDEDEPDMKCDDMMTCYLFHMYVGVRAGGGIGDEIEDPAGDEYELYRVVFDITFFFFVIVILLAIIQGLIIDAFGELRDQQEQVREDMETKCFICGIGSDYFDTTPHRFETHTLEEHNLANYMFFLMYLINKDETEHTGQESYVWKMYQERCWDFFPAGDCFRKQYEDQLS

For `CN(C)c1ccccc1CN1CCCN(Cc2ccccc2N(C)C)C1c1ccncc1` [GANT61, 2-[[3-[[2-(dimethylamino)phenyl]methyl]-2-pyridin-4-yl-1,3-diazinan-1-yl]methyl]-N,N-dimethylaniline], the EC50 in assay [1] ([Ca2+] 30 nM) was 4 nM; in assay [1] ([Ca2+], 30 µM), 17300 nM; in assay [2] (setting [5]), 15800 nM; in assay [3] ([Ca2+] 30 nM), 4 nM; in assay [3] ([Ca2+], 30 µM) it was 9400 nM. Further, the “effect on [3H]ryanodine binding to RyR2” value in assay [1] (30 μM Ca2+) is given as “inhibitor at concentration >1 μM”. Besides, in assay [2], the “saturation of FRET dose-response” value was “did not reach saturation within the tested concentration range”. The “maximum inhibitory effect on [3H]ryanodine binding” value (from here on “maximum inhibitory effect”) in assay [3] was ~50%. In addition, the “effect on [3H]ryanodine binding to RyR1” value in assay [3] is recorded as “gradual inhibition at concentrations >1 μM”.
With `Nc1ccc(-c2nc3ccc(-c4nc5ccc(N)cc5[nH]4)cc3[nH]2)cc1` [Ro 90-7501, 2'-(4-Aminophenyl)-1H,1'H-2,5'-bibenzimidazol-5-amine], the EC50 in assay [2] (hits that increased FLT, read-out: EC50 (FRET dose-response)) was < 1000 nM. The “effect on RyR” value in assay [4] was “inhibitory”.
For the compound `COc1ccc(/C=C/c2nc(NCCCN(C)C)c3ccccc3n2)cc1` [CP-31398], the “decrease of donor-only FLT as share of the FLT change in the donor-acceptor sample” value in assay [2] is given as > 50%.
Consider `CSc1c(C)c(SC)n2ccncc12` [oltipraz M2, 7-Methyl-6,8-bis(methylthio)-pyrrolo[1,2-a]pyrazine], for which the results for the “effect on [3H]ryanodine binding to RyR2” value in assay [1] (30 nM Ca2+) and in assay [1] (30 μM Ca2+) were “almost no effect” and “did not significantly alter”, respectively. In addition, the EC50 in assay [2] (setting [5]) is 21700 nM; in assay [3] ([Ca2+] 30 nM) it was 5 nM. The “saturation of FRET dose-response” value in assay [2] is “did not reach saturation within the tested concentration range”. In addition, the “maximum inhibitory effect” value in assay [3] is listed as ~50%. In addition, the “effect on [3H]ryanodine binding to RyR1” value in assay [3] is “only slightly affected”.
Regarding `C=CC[C@@H]1/C=C(\C)C[C@H](C)C[C@H](OC)[C@H]2O[C@@](O)(C(=O)C(=O)N3CCCC[C@H]3C(=O)O[C@H](/C(C)=C/[C@@H]3CC[C@@H](O)[C@H](OC)C3)[C@H](C)[C@@H](O)CC1=O)[C@H](C)C[C@@H]2OC` [tacrolimus, (3S,4R,5S,8R,9E,12S,14S,15R,16S,18R,19R,26aS)-5,19-dihydroxy-3-{(1E)-1-[(1R,3R,4R)-4-hydroxy-3-methoxycyclohexyl]prop-1-en-2-yl}-14,16-dimethoxy-4,10,12,18-tetramethyl-8-(prop-2-en-1-yl)-5,6,8,11,12,13,14,15,16,17,18,19,24,25,26,26a-hexadecahydro-3H-15,19-epoxypyrido[2,1-c][1,4]oxazacyclotricosine-1,7,20,21(4H,23H)-tetrone], in assay [2] (AC-NTR biosensor), the ΔFLT entry is listed as “≈ 0.1 ns”. In addition, the “effect on RyR” value in assay [4] was “activatory”.
For `O=C(c1ccc(Cl)cc1)N1CCN(c2ccc([N+](=O)[O-])c3ncccc23)CC1` [CPNQ, 5-[4-(4-Chlorobenzoyl)-1-piperazinyl]-8-nitroquinoline], the 50% effective concentration (EC50) in assay [1] ([Ca2+] 30 nM) was 20 nM; in assay [2] (setting [5]), 1300 nM; in assay [3] ([Ca2+] 30 nM), 20 nM. Further, the “effect on [3H]ryanodine binding to RyR2” value was “inhibitory trend” in assay [1] (30 nM Ca2+) and “did not significantly alter” in assay [1] (30 μM Ca2+). Further, the ΔFLT result in assay [2] (AC-NTR biosensor) is listed as “≈ 0.35 ns”. Moreover, the “maximum inhibitory effect” value in assay [3] is “approximately 30%”. For the same compound, the “effect on [3H]ryanodine binding to RyR1” value in assay [3] is recorded as “only slightly affected”.
Turning to `CO[C@H]1C[C@@H]2CC[C@@H](C)[C@@](O)(O2)C(=O)C(=O)N2CCCC[C@H]2C(=O)O[C@H]([C@H](C)C[C@@H]2CC[C@@H](OC(=O)C(C)(CO)CO)[C@H](OC)C2)CC(=O)[C@H](C)/C=C(\C)[C@@H](O)[C@@H](OC)C(=O)[C@H](C)C[C@H](C)/C=C/C=C/C=C/1C` [temsirolimus, (1R,2R,4S)-4-{(2R)-2-[(3S,6R,7E,9R,10R,12R,14S,15E,17E,19E,21S,23S,26R,27R,34aS)-9,27-dihydroxy-10,21-dimethoxy-6,8,12,14,20,26-hexamethyl-1,5,11,28,29-pentaoxo-1,4,5,6,9,10,11,12,13,14,21,22,23,24,25,26,27,28,29,31,32,33,34,34a-tetracosahydro-3H-23,27-epoxypyrido[2,1-c][1,4]oxazacyclohentriacontin-3-yl]propyl}-2-methoxycyclohexyl 3-hydroxy-2-(hydroxymethyl)-2-methylpropanoate], the EC50 in assay [2] (read-out: EC50 (FRET dose-response), hits that increased FLT) is < 1000 nM.
For the compound `CC/C(=C(\c1ccccc1)c1ccc(OCCN(C)C)cc1)c1ccccc1` [tamoxifen], the “decrease of donor-only FLT as share of the FLT change in the donor-acceptor sample” value in assay [2] is > 50%.
